According to patent US11395798B2, “O/W type emulsion” (NOF CORPORATION, priority 2015, dated 2022):

How the values were obtained:
[1] = water/octanol; cited from earlier work
[2] = particle size distribution by dynamic light scattering (Zetasizer Nano ZS); type: physicochemical
Description: The particle size distribution of the prepared emulsion was measured by dynamic light scattering using Zetasizer Nano ZS. The measurement conditions were 1 mM emulsion (40 μL) at 25° C. As a result, in all compositions, the volume median diameter was not more than 100 nm and, when a linear head was used (i.e., the formula (I) wherein X^a and X^b are each X^1), the particle size was not more than 50 nm. The drug recovery rate was not less than 85% (FIG. 1, Table 2).
EPC and Cholesterol were mixed to achieve 1000 nmol and a PEG lipid was added. Chloroform in an amount equal to that of the lipid ethanol solution was added and the mixture was dried under a nitrogen blow. PBS (1 mL) was added to the lipid membrane after drying and the mixture was stood for 10 min and sonicated by a bath-type sonicator for 3 min to give a particle suspension. The particle size distribution of the prepared particles was measured by dynamic light scattering in the same manner as in Example 1.
The particle size distribution of the produced emulsion solution was measured by dynamic light scattering similarly to Example 1. As a result, when DOPC was used, the volume median diameter was near 40 nm irrespective of pH.
An ethanol solution containing 500 nmol as a total of cationic B-2, DOPE, and Cholesterol was prepared, and a PEG lipid was added in the above-mentioned amount. Ethanol was added to make the total amount 200 μL, and the mixture was stood at ice temperature for 15 min. A similarly ice-cooled malic acid buffer (20 mM, pH 3.0, 0-1000 mM NaCl) (200 μL) was mixed within 3 sec under vortex. PBS (NISSUI) (3600 μL) was immediately added thereto. The mixture was subjected to ultrafiltration using Amicon Ultra (Millipore). The centrifugation conditions were 1000 G, 25° C. An operation including addition of 3200 μL of PBS after centrifugation for 10 min was repeated twice and the sample was concentrated to about 500 μL. The concentrate was diluted with PBS to a mass of 1000 mg to give a 0.5 mM (lipid concentration) emulsion. The particle size distribution of the produced emulsion solution was measured by dynamic light scattering similarly to Example 1.
The volume median diameter and the surface potential were measured using the dynamic light scattering (Zetasizer Nano; Malvern) in the same manner as in Example 1.
The average particle size of the produced particles was measured in the same manner as in Example 1 and the results are shown in Table 7.

[3] = O/W emulsion cationic lipid:DOPE:Cholesterol=3:4:3, 4-Methylumbelliferon 10 mol %, DMG-PEG2000 10 mol %, DSG-PEG2000 2.5 mol %
[4] = O/W emulsion cationic lipid:DOPE:Cholesterol=3:4:3, 4-Methylumbelliferon 10 mol %, DMG-PEG2000 10 mol %, DSG-PEG2000 2.5 mol %, 1 mM, 25° C.
[5] = B-2:helper lipid:Cholesterol=3:4:3, 15 mol % DMG-PEG2000, malic acid buffer pH 4.0
[6] = B-2:helper lipid:Cholesterol=3:4:3, 15 mol % DMG-PEG2000, pH 3.0
[7] = B-2:helper lipid:Cholesterol=3:4:3, 15 mol % DMG-PEG2000, pH 4.0

Row | Compound | Log Pow [1] | other results
1 | C=C1CC[C@H](O)C/C1=C/C=C1\CCC[C@]2(C)[C@@H]([C@H](C)/C=C/[C@H](C)C(C)C)CC[C@@H]12 [ergocalciferol] | 9.15 | –
2 | C#C[C@]1(O)CC[C@H]2[C@@H]3CCC4=Cc5oncc5C[C@]4(C)[C@H]3CC[C@@]21C [danazol] | 4.94 | –
3 | COC(=O)[C@H]1[C@H]2C[C@@H]3c4[nH]c5cc(OC)ccc5c4CCN3C[C@H]2C[C@@H](OC(=O)c2cc(OC)c(OC)c(OC)c2)[C@@H]1OC [reserpine] | 4.45 | –
4 | CCC(C)(Oc1ccc(C2(c3ccc(OC(C)(CC)C(=O)O)cc3)CCCCC2)cc1)C(=O)O (centres unmarked) [clinofibrate] | 6.33 | –
5 | CCCCCCCCCCCCCCCC(=O)OC/C=C(C)/C=C/C=C(C)/C=C/C1=C(C)CCCC1(C)C [retinol palmitate] | 14.32 | –
6 | CC1=C(C/C=C(\C)CCC[C@H](C)CCC[C@H](C)CCCC(C)C)C(=O)c2ccccc2C1=O [phytonadione] | 10.31 | –
7 | COc1ccc2c(c1)c(CC(=O)O)c(C)n2C(=O)c1ccc(Cl)cc1 [indomethacin] | 4.25 | –
8 | CC(C)=CCN1CCC2(C)c3cc(O)ccc3CC1C2C (centres unmarked) [pentazocine] | 4.15 | –
9 | COC1(O[C@H]2CC[C@H]3[C@@H]4CC[C@H]5C[C@@H]6S[C@@H]6C[C@]5(C)[C@H]4CC[C@]23C)CCCC1 [mepitiostane] | 6.89 | –
10 | Clc1ccccc1C(c1ccccc1)(c1ccccc1)n1ccnc1 [clotrimazole] | 4.93 | –
11 | CC(C(=O)O)c1ccc2c(c1)CC(=O)c1ccccc1S2 (centres unmarked) [zaltoprofen] | 4.25 | –
12 | COc1ccc2c(c1)c(CC(=O)OCC(=O)O)c(C)n2C(=O)c1ccc(Cl)cc1 [acemetacin] | 4.49 | –
13 | COC1=C(OC)C(=O)C(C/C=C(\C)CC/C=C(\C)CC/C=C(\C)CC/C=C(\C)CC/C=C(\C)CC/C=C(\C)CC/C=C(\C)CC/C=C(\C)CC/C=C(\C)CCC=C(C)C)=C(C)C1=O [ubidecarenone] | 19.12 | –
14 | CCCCCCCC/C=C\CCCCCCCC(=O)OCCCN(C)CCSSCCN(C)CCCOC(=O)CCCCCCC/C=C\CCCCCCCC [O-C3M] | – | PdI [2, 3]: 0.228; volume median diameter [2, 4]: 38.4 nm
15 | C=C1CC[C@H](O)C/C1=C/C=C1\CCC[C@]2(C)[C@@H]([C@H](C)CCCC(C)C)CC[C@@H]12 [cholecalciferol] | 9.08 | –
16 | CCCCC/C=C\C/C=C\CCCCCCCC(=O)OCCN1CCN(CCSSCCN2CCN(CCOC(=O)CCCCCCC/C=C\C/C=C\CCCCC)CC2)CC1 [L-PZ4C2] | – | PdI [2, 3]: 0.092; volume median diameter [2, 4]: 75.8 nm
17 | CC(C)(C)c1ccc(C(=O)CCCN2CCC(OC(c3ccccc3)c3ccccc3)CC2)cc1 [ebastine] | 6.81 | –
18 | tocopherol | 10.96 | –
19 | COc1ccccc1OCCNCC(O)COc1cccc2[nH]c3ccccc3c12 (centres unmarked) [carvedilol] | 4.07 | –
20 | CCCCCCC(=O)OCCN1CCN(CCCN2c3ccccc3Sc3ccc(C(F)(F)F)cc32)CC1 [fluphenazine enanthate] | 7.29 | –
21 | C=CC[C@@H]1/C=C(\C)C[C@H](C)C[C@H](OC)[C@H]2O[C@@](O)(C(=O)C(=O)N3CCCC[C@H]3C(=O)O[C@H](/C(C)=C/[C@@H]3CC[C@@H](O)[C@H](OC)C3)[C@H](C)[C@@H](O)CC1=O)[C@H](C)C[C@@H]2OC [tacrolimus] | 4.79 | –
22 | CCCCCCCC/C=C\CCCCCCCC(=O)OC[C@H](COP(=O)([O-])OCC[N+](C)(C)C)OC(=O)CCCCCCC/C=C\CCCCCCCC [DOPC, dioleoylphosphatidylcholine] | – | volume median diameter ([2]; B-2:helper lipid:Cholesterol=3:4:3, 15 mol % DMG-PEG2000, malic acid buffer pH 3.0): 41.5 nm; volume median diameter [2, 5]: 40.5 nm; volume median diameter ([2]; B-2:helper lipid:Cholesterol=3:4:3, 15 mol % DMG-PEG2000, malic acid buffer pH 5.0): 45.6 nm; PdI [2, 6]: 0.319; PdI [2, 7]: 0.214; PdI ([2]; B-2:helper lipid:Cholesterol=3:4:3, 15 mol % DMG-PEG2000, pH 5.0): 0.196; volume median diameter ([2]; B-2:helper lipid:Cholesterol=3:4:3, irrespective of pH (3.0-5.0)): about 40 nm
23 | CC(=O)Oc1c(C)c(C)c2c(c1C)CCC(C)(CCC[C@H](C)CCC[C@H](C)CCCC(C)C)O2 (some centres unmarked) [tocopheryl acetate] | 10.69 | –
24 | CCCCCCCCCCCCCCCC(=O)Oc1ccc2c(C)cc(=O)oc2c1 [4-methylumbelliferone palmitate] | 7.92 | –
25 | CC(C)=CCC/C(C)=C/CC/C(C)=C/CC/C(C)=C/CC1=C(C)C(=O)c2ccccc2C1=O [menatetrenone] | 8.79 | –

Row | Compound | Log Pow [1] | other results
26 | Cc1cccc(N(C)C(=S)Oc2ccc3ccccc3c2)c1 [tolnaftate] | 5.14 | –
27 | CCCCCCCC/C=C\CCCCCCCC(=O)OC[C@H](COP(=O)(O)OCCN)OC(=O)CCCCCCC/C=C\CCCCCCCC [DOPE, dioleoylphosphatidylethanolamine] | – | volume median diameter [2, 5]: 90.2 nm; PdI [2, 6]: 0.191; PdI [2, 7]: 0.078
28 | O=C(COCCOCCOCC(=O)Nc1c(I)cc(I)c(C(=O)O)c1I)Nc1c(I)cc(I)c(C(=O)O)c1I [iotroxatic acid] | 4.32 | –
29 | CCc1oc2ccccc2c1C(=O)c1cc(Br)c(O)c(Br)c1 [benzbromarone] | 6.65 | –
30 | CCCCC(=O)O[C@]1(C(=O)CO)[C@@H](C)C[C@H]2[C@@H]3CCC4=CC(=O)C=C[C@]4(C)[C@@]3(F)[C@@H](O)C[C@@]21C [betamethasone valerate] | 4.14 | –
31 | C[C@]12CC[C@@H]3c4ccc(OC(=O)c5ccccc5)cc4CC[C@H]3[C@@H]1CC[C@@H]2O [estradiol benzoate] | 5.10 | –
32 | retinol acetate | 7.19 | –
33 | CCOc1nc2cccc(C(=O)OC(C)OC(=O)OC3CCCCC3)c2n1Cc1ccc(-c2ccccc2-c2nnn[nH]2)cc1 (centres unmarked) [candesartancilexetil] | 7.21 | –
34 | C#C[C@]1(O)CC[C@H]2[C@@H]3CCc4cc(OC)ccc4[C@H]3CC[C@@]21C [mestranol] | 4.94 | –
35 | C[C@H](CCC(=O)O)[C@H]1CC[C@H]2[C@@H]3[C@@H](O)C[C@@H]4C[C@H](O)CC[C@]4(C)[C@H]3CC[C@]12C [ursodeoxycholic acid] | 4.76 | –
36 | Cc1cccc(Nc2ccccc2C(=O)O)c1C [mefenamic acid] | 4.83 | –
37 | CCC(=O)OCC(=O)[C@@]1(OC(=O)CC)[C@@H](C)C[C@H]2[C@@H]3CCC4=CC(=O)C=C[C@]4(C)[C@@]3(Cl)[C@@H](O)C[C@@]21C [beclopetasone propionate] | 4.07 | –
38 | CCC(=O)O[C@@H]1CC(=O)O[C@H](C)C/C=C/C=C/[C@H](OC(C)=O)[C@H](C)C[C@H](CC=O)[C@H](O[C@@H]2O[C@H](C)[C@@H](O[C@H]3C[C@@](C)(OC(C)=O)[C@@H](OC(=O)CC)[C@H](C)O3)[C@H](N(C)C)[C@H]2O)[C@H]1OC [midecamycin acetate] | 5.58 | –
39 | c1ccc(-c2ccc(C(c3ccccc3)n3ccnc3)cc2)cc1 (centres unmarked) [bifonazole] | 4.69 | –
40 | C#C[C@]1(O)CC[C@H]2[C@@H]3CCc4cc(O)ccc4[C@H]3CC[C@@]21C [ethinylestradiol] | 4.11 | –
41 | CC(C)Oc1ccc2c(=O)c(-c3ccccc3)coc2c1 [ipriflavone] | 4.25 | –
42 | c1ccc2c(c1)Sc1ccccc1N2CC1CN2CCC1CC2 (centres unmarked) [mequitazine] | 5.20 | –
43 | Cc1cc(O)c2c(c1)O[C@@]1(C)CC[C@H]3C(C)(C)CCC[C@]34CO[C@@H]2[C@H]41 [siccanin] | 6.10 | –
44 | CCCC(=O)OC[C@@H](OC(=O)CCC)[C@@H](OC(=O)CCC)[C@H](Cn1c2nc(=O)[nH]c(=O)c-2nc2cc(C)c(C)cc21)OC(=O)CCC [riboflavin butyrate] | 6.25 | –
45 | [H]/N=C(\N/C(=N/[H])NCCCCCCNC(=N)NC(=N)Nc1ccc(Cl)cc1)Nc1ccc(Cl)cc1 [chlorhexidine] | 4.58 | –
46 | CCC(C)n1ncn(-c2ccc(N3CCN(c4ccc(OCC5COC(Cn6cncn6)(c6ccc(Cl)cc6Cl)O5)cc4)CC3)cc2)c1=O (centres unmarked) [itraconazole] | 5.00 | –
47 | CCCCCCCCCCCCCCCC(=O)OC[C@@H](NC(=O)C(Cl)Cl)[C@H](O)c1ccc([N+](=O)[O-])cc1 [chloramphenicol palmitate] | 8.69 | –
48 | O=c1[nH]c2ccccc2n1C1CCN(CCCC(c2ccc(F)cc2)c2ccc(F)cc2)CC1 [pimozide] | 5.76 | –
49 | COC(=O)C1=C(C)NC(C)=C(C(=O)OC2CCCN(Cc3ccccc3)C2)C1c1cccc([N+](=O)[O-])c1 (centres unmarked) [benidipine] | 5.56 | –
